Test results taken from publication PMC8449414, “Rational design of ASCT2 inhibitors using an integrated experimental-computational approach” (Proceedings of the National Academy of Sciences of the …, 2021).
Where “and” joins values, the source holds several entries; their conditions need not be identical. Equal entries are not always repeated.

Legend:
[1] = target: T1, hASCT2 (Homo sapiens, UniProt Q15758); assay: Electrophysiology: inhibition of leak anion current in transfected HEK293 cells; assay type: cell-based; details: for activity (in words, structure activity relationship): ASCT2, species not given; for Binding affinity Ki (apparent Ki) / Ki: HEK293 cells, 0 mV, 130 mM NaSCN internal, 140 mM NaCl external, No current = no inhibition of anion leak current up to highest concentration tested (§ 20-50, || 100-400, # 1500-2500 µM); for Ki: read-out: Binding affinity Ki (apparent Ki); for selectivity for hASCT2 over rEAAT1: ratio of Ki, hASCT2 versus rEAAT1
T1 construct: expressed in transfected cells; host or cells: HEK293 (ATCC CRL-11268), transient transfection
T1 sequence (Q15758 1-541): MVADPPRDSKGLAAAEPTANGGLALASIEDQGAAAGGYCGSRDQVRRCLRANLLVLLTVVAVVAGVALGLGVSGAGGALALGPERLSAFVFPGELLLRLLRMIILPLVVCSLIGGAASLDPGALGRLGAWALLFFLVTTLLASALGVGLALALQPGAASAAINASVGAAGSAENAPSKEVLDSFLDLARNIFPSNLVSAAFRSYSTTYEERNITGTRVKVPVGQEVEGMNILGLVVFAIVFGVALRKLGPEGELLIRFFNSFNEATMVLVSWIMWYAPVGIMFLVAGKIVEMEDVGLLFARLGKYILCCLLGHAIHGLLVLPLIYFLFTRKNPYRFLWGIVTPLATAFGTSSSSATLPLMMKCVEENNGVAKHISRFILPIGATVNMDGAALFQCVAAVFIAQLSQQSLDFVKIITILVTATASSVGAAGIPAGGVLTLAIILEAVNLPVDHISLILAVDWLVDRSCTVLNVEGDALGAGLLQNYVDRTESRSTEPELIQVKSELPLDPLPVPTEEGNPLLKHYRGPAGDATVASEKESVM
Method: (§1) Cell culture and transfection
(§2) Human embryonic kidney 293 (HEK293, ATCC CRL -11268) cells were cultured in DMEM media supplemented with 10% (v/v) fetal bovine serum (FBS), 2 mM glutamine, 1% penicillin streptomycin solution, 1 mM sodium pyruvate and non -essential amino acids. Cells were maintained at 370C in a fully humidified atmosphere containing 5% CO2. rASCT2, hASCT2, hASCT1, EAAT1, EAAT2, EAAT3, EAAT5 and YFP complementary DNAs were each used to transiently transfect HEK293 using POLYPLUS Jet-prime transfection reagent. Cells were analyzed using electrophysiological techniques 24-40 hours after transfection.
(§3) Electrophysiological techniques
(§4) Electrophysiological experiments were performed as described previously 1,2. Stock solutions of inhibitor was prepared in dimethyl sulfoxide (DMSO) up to 100 mM.
(§5) Dilutions to working concentrations were made using external buffer. The highest

[2] = target: T2, rASCT2 (Rattus norvegicus, UniProt D3ZJ25); assay: as above; assay type: cell-based; details: HEK293 cells, 0 mV, 130 mM NaSCN internal, 140 mM NaCl external, No current = no inhibition of anion leak current up to highest concentration tested (§ 20-50, || 100-400, # 1500-2500 µM); for Ki: read-out: Binding affinity Ki (apparent Ki)
T2 construct: expressed in transfected cells; host or cells: HEK293 (ATCC CRL-11268), transient transfection
T2 sequence (D3ZJ25 1-555): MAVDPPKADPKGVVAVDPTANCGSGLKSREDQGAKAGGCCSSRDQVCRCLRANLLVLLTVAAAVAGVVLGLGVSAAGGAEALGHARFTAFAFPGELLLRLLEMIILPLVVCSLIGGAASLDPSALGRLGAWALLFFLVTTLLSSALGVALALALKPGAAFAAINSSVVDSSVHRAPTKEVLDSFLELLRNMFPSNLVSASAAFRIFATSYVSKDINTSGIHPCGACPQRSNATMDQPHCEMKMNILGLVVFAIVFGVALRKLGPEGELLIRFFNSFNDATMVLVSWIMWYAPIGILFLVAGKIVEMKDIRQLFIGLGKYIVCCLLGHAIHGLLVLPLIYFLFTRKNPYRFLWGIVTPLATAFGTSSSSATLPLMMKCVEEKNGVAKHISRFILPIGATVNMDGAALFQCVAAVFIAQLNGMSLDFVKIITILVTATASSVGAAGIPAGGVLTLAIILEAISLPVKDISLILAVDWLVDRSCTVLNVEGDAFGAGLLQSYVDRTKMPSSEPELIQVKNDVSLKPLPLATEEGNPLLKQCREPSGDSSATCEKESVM
Method: as §1, §2, §3, §4, §5

Row | Structure (SMILES) | activity (in words, structure activity relationship) [1] | Binding affinity Ki (apparent Ki) [1] | Binding affinity Ki (apparent Ki) [2] | Ki [1] | Ki [2] [µM] | selectivity for hASCT2 over rEAAT1 [1]
1 | O=C(O[C@@H]1CN[C@H](C(=O)O)C1)c1ccccc1-c1ccccc1 [ERA-3] | inactive | No current | No current | – | – | –
2 | O=C(O[C@@H]1CN[C@H](C(=O)O)C1)c1ccc(-c2ccc(F)cc2)cc1 [ERA-4] | – | – | – | 0.74 ± 0.09 µM | 0.65 ± 0.04 | –
3 | O=C(O[C@@H]1CN[C@H](C(=O)O)C1)c1ccc(-c2ccc(C(F)(F)F)cc2)cc1 [ERA-5] | – | – | – | 1.05 ± 0.21 µM | 0.27 ± 0.05 | –
4 | Cc1ccccc1-c1ccc(C(=O)O[C@@H]2CN[C@H](C(=O)O)C2)cc1 [ERA-6] | – | – | – | 1.12 ± 0.11 µM | 0.97 ± 0.08 | –
5 | O=C(O[C@@H]1CN[C@H](C(=O)O)C1)c1ccc(C(O)c2ccccc2)cc1 (some centres unmarked) [ERA-9] | – | – | – | 5.65 µM and 5.7 µM | 18.8 ± 4.97 | sevenfold
6 | O=C(Nc1ccc(C(=O)O[C@@H]2CN[C@H](C(=O)O)C2)cc1)c1ccc(C(F)(F)F)cc1 [ERA-11] | – | – | – | 2.94 ± 0.93 µM | 3.37 ± 0.41 | threefold
7 | O=C(O[C@@H]1CN[C@H](C(=O)O)C1)c1ccc(Oc2ccccc2)cc1 [ERA-16] | – | – | – | 4.17 ± 0.46 µM | 3.68 ± 0.73 | –
8 | N[C@@H](COC(=O)c1ccc(NC(=O)c2ccccc2)cc1)C(=O)O [ERA-21] | – | – | – | 22.6 ± 3.66 µM | 4.33 ± 1.3 | –
9 | N[C@@H](COC(=O)c1ccccc1)C(=O)O [ERA-25] | – | – | – | 186 ± 17.2 µM | 290 ± 16.5 | –
10 | N[C@@H](COC(=O)c1cccnc1)C(=O)O [ERA-28] | – | – | – | 690 ± 54.2 µM | 266 ± 42.7 | –
11 | O=C(O[C@@H]1CN[C@H](C(=O)O)C1)C(c1ccccc1)c1ccccc1 [ERA-29] | no activity | No current | No current | – | – | –
12 | O=C(O[C@@H]1CN[C@H](C(=O)O)C1)c1ccc(OCc2ccccc2)cc1 [ERA-31] | – | No current | – | – | 8.17 ± 1.05 | –
13 | O=C(O[C@H]1CN[C@H](C(=O)O)C1)c1ccc(C(=O)c2ccccc2)cc1 [ERA-35] | – | – | – | > 500 µM | 121 ± 29.9 | –
14 | O=C(O[C@@H]1CN[C@H](C(=O)O)C1)c1ccc(-c2ccccc2)cc1 [Lc-BPE, L-cis hydroxyproline biphenyl ester] | – | – | – | 0.86 ± 0.11 µM | 0.74 ± 0.11 | –
